Measured values: ChEMBL document CHEMBL1135525, “Probing the ATP ribose-binding domain of cyclin-dependent kinases 1 and 2 with O(6)-substituted guanine derivatives” (J Med Chem, 2002)

Columns and labels:
[1] = biological target: T1, Cyclin-dependent kinase 1/cyclin B1 (Homo sapiens, UniProt P06493+P14635); assay: Inhibition of starfish oocyte (Marthasteria glacialis) Cyclin-dependent kinase 1-cyclin B1 at a concentration of 100 uM; format: protein-complex assay; conditions: Asteroidea
Target sequence in this assay (P06493 whole entry, looked up): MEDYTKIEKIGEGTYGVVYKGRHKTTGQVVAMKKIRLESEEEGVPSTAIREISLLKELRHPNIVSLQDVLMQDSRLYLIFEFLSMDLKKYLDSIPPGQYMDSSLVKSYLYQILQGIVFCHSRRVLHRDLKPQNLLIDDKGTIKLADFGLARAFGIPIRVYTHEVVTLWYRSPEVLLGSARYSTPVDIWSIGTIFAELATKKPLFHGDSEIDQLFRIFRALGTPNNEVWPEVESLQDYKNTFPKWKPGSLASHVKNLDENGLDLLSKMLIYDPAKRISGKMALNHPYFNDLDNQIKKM
Target sequence in this assay (P14635 whole entry, looked up): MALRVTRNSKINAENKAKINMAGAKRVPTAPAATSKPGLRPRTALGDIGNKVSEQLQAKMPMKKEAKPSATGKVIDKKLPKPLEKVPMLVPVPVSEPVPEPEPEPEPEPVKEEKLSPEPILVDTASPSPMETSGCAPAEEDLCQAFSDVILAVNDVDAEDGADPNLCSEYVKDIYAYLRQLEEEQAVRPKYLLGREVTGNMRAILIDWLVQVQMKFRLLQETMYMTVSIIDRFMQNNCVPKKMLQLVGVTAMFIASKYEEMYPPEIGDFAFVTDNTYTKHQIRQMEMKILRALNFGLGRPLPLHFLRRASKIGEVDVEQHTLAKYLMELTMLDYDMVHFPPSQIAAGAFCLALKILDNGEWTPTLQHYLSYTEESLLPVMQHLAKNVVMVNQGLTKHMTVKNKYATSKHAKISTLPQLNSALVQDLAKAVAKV

[2] = biological target: T2, Cyclin-dependent kinase 2/cyclin A (Homo sapiens) (UniProt P24941+P20248+P78396); assay: Inhibition of human Cyclin-dependent kinase 2-cyclin A at a concentration of 100 uM; format: protein-complex assay
[3] = biological target: T2, Cyclin-dependent kinase 2/cyclin A (Homo sapiens); assay: Inhibition of human Cyclin-dependent kinase 2-cyclin A at a concentration of 10 uM; format: protein-complex assay
[4] = biological target: T1, Cyclin-dependent kinase 1/cyclin B1; assay: Inhibition of starfish oocyte (Marthasteria glacialis) Cyclin-dependent kinase 1-cyclin B1 at a concentration of 10 uM; format: protein-complex assay; conditions: Asteroidea
Target sequence in this assay (P06493 whole entry, looked up): as the sequence (P06493 whole entry, looked up) above
Target sequence in this assay (P14635 whole entry, looked up): as the sequence (P14635 whole entry, looked up) above

[5] = biological target: T1, Cyclin-dependent kinase 1/cyclin B1; assay: Inhibition of starfish oocyte (Marthasteria glacialis) Cyclin-dependent kinase 1-cyclin B1; format: protein-complex assay, Asteroidea
Target sequence in this assay (P06493 whole entry): as the sequence (P06493 whole entry, looked up) above
Target sequence in this assay (P14635 whole entry): as the sequence (P14635 whole entry, looked up) above

[6] = biological target: T3, Cyclin-dependent kinase 2/cyclin A (Homo sapiens, UniProt P24941); assay: Inhibition of human Cyclin-dependent kinase 2-cyclin A; format: protein-complex assay
[7] = biological target: T2, Cyclin-dependent kinase 2/cyclin A (Homo sapiens); assay: Inhibition of human Cyclin-dependent kinase 2-cyclin A3 at a concentration of 100 uM; format: protein-complex assay
[8] = biological target: T2, Cyclin-dependent kinase 2/cyclin A (Homo sapiens); assay: Inhibition of human Cyclin-dependent kinase 2-cyclin A3 at 100 uM; format: protein-complex assay
[9] = biological target: T2, Cyclin-dependent kinase 2/cyclin A (Homo sapiens); assay: Inhibition of human Cyclin-dependent kinase 2-cyclin A at 100 uM; format: protein-complex assay
[10] = biological target: T3, Cyclin-dependent kinase 2/cyclin A; assay: Inhibition of human Cyclin-dependent kinase 2-cyclin A3; format: protein-complex assay
[11] = test system: MCF7; assay: Inhibition of MCF-7 human breast carcinoma cell proliferation; format: functional
[12] = biological target: T2, Cyclin-dependent kinase 2/cyclin A (Homo sapiens); assay: Inhibition of Cyclin-dependent kinase 2-cyclin A at 10 uM; format: protein-complex assay
[13] = biological target: T2, Cyclin-dependent kinase 2/cyclin A (Homo sapiens); assay: Inhibition of Cyclin-dependent kinase 2-cyclin A at 100 uM; format: protein-complex assay

Row | inhibition [1] [%] | SMILES | IC50 [6] [µM] | other results
1 | 41 | CC(C)C(=O)COc1nc(N)nc2nc[nH]c12 |  | inhibition [2]: 31%
2 |  | Nc1nc(OCC23CC4CC(CC(C4)C2)C3)c2nc[nH]c2n1 |  | inhibition [3]: 29%; inhibition [4]: 55%
3 | 48 | CCOc1nc(N)nc2[nH]cnc12 |  | inhibition [2]: 51%
4 |  | CCC(COc1nc(N)nc2[nH]cnc12)(OC)OC | 20 | IC50 [5]: 19 µM
5 |  | Nc1nc(OCc2ccccc2)c2[nH]cnc2n1 [6-O-BENZYLGUANINE] | 35 | 
6 | 10 | CC1(C)OC2OC(COc3nc(N)nc4[nH]cnc34)C3OC(C)(C)OC3C2O1 (stereo not drawn) |  | inhibition [7]: 4%
7 |  | Nc1nc(OCC=C2CCCCC2)c2nc[nH]c2n1 |  | inhibition [3]: 12%; inhibition [4]: 21%
8 | 31 | CC1(C)OC[C@H](COc2nc(N)nc3[nH]cnc23)O1 |  | inhibition [7]: 27%
9 |  | CCOC.CCOC(C)COc1[nH]c(N)nc2ncnc1-2 (stereo not drawn) | 33 | 
10 |  | CCCOc1nc(N)nc2nc[nH]c12 | 67 | 
11 | 52 | Nc1nc(OCC2COc3ccccc3O2)c2nc[nH]c2n1 (stereo not drawn) |  | inhibition [7]: 52%
12 | 50 | Nc1nc(OCC2CCCCO2)c2nc[nH]c2n1 (stereo not drawn) |  | inhibition [8]: 43%
13 |  | CC(C)CCOc1nc(N)nc2nc[nH]c12 | 26 | 
14 |  | CCCCOc1nc(N)nc2[nH]cnc12 | 48 | 
15 |  | Nc1nc(OCc2ccc3ccccc3c2)c2[nH]cnc2n1 |  | inhibition [3]: 9%; inhibition [4]: 12%
16 | 70 | Cc1cccc(COc2nc(N)nc3nc[nH]c23)c1 |  | inhibition [9]: 52%
17 |  | CC(C)C1(COc2nc(N)nc3[nH]cnc23)OCCO1 |  | IC50 [10]: 65 µM
18 |  | C=C(COc1nc(N)nc2[nH]cnc12)C(C)C | 16 | 
19 |  | C=C(COc1nc(N)nc2nc[nH]c12)c1ccccc1 | 34 | GI50 [11]: 28 µM
20 |  | CCC(C)Oc1nc(N)nc2[nH]cnc12 (stereo not drawn) | 25 | 

Row | inhibition [1] [%] | SMILES | IC50 [6] [µM] | other results
21 |  | Nc1nc(OCC2CC=CCC2)c2[nH]cnc2n1 (stereo not drawn) | 13 | GI50 [11]: 37 µM
22 |  | C=C(C)[C@H]1CC=C(COc2nc(N)nc3[nH]cnc23)CC1 |  | inhibition [3]: 18%; inhibition [4]: 17%
23 |  | Nc1nc(OCCC2CCCCC2)c2nc[nH]c2n1 | 44 | 
24 |  | CC(C)COc1nc(N)nc2[nH]cnc12 | 42 | 
25 |  | Nc1nc(OCCc2ccccc2)c2nc[nH]c2n1 | 65 | 
26 | 65 | COc1cccc(COc2nc(N)nc3[nH]cnc23)c1 |  | inhibition [12]: 49%
27 |  | Nc1nc(OCC2=CCCC2)c2[nH]cnc2n1 | 31 | 
28 | 43 | CC1(C)OCC(COc2nc(N)nc3[nH]cnc23)O1 (stereo not drawn) |  | inhibition [7]: 36%
29 |  | Nc1nc(OCc2cccc(Cl)c2)c2nc[nH]c2n1 |  | inhibition [4]: 28%; inhibition [12]: 19%
30 |  | CCCCCOc1nc(N)nc2[nH]cnc12 | 49 | 
31 | 58 | Nc1nc(OCc2ccccn2)c2nc[nH]c2n1 |  | inhibition [7]: 43%
32 |  | Nc1nc(OCC2CCCCC2)c2nc[nH]c2n1 |  | GI50 [11]: 20 µM
33 |  | C=C(C)COc1nc(N)nc2nc[nH]c12 | 35 | 
34 | 49 | Nc1nc(OCC2CCCO2)c2[nH]cnc2n1 (stereo not drawn) |  | inhibition [2]: 40%
35 | 36 | COc1nc(N)nc2nc[nH]c12 |  | inhibition [2]: 35%
36 |  | Nc1nc(OCC2CCCC2)c2nc[nH]c2n1 | 21 | 
37 | 15 | CC(=O)COc1nc(N)nc2[nH]cnc12 |  | inhibition [2]: 16%
38 |  | C#CCOc1nc(N)nc2nc[nH]c12 | 90 | 
39 |  | CCCCCCCOc1nc(N)nc2[nH]cnc12 | > 100 | IC50 [5]: 62 µM
40 |  | C=C(CC)COc1nc(N)nc2[nH]cnc12 | 21 | 

Row | inhibition [1] [%] | SMILES | IC50 [6] [µM] | other results
41 |  | Nc1nc(OCC2=CCCCC2)c2[nH]cnc2n1 | 22 | 
42 |  | CCC(C)COc1nc(N)nc2nc[nH]c12 (stereo not drawn) | 15 | 
43 | 35 | Nc1nc(OCC(O)CO)c2nc[nH]c2n1 (stereo not drawn) |  | inhibition [2]: 33%
44 | 52 | Nc1nc(OCC2CCNCC2)c2nc[nH]c2n1 |  | inhibition [7]: 43%
45 | 10 | COC1OC(COc2nc(N)nc3[nH]cnc23)C2OC(C)(C)OC12 (stereo not drawn) |  | inhibition [7]: 16%; GI50 [11]: > 100 µM
46 | 49 | COCC(COc1nc(N)nc2[nH]cnc12)OC (stereo not drawn) |  | inhibition [2]: 41%
47 |  | C=CCCCCOc1nc(N)nc2[nH]cnc12 | 47 | 
48 |  | CC/C=C/CCOc1nc(N)nc2[nH]cnc12 | 69 | 
49 | 65 | Nc1cccc(COc2nc(N)nc3[nH]cnc23)c1 |  | inhibition [13]: 52%
50 | 50 | Nc1nc(OC[C@H]2CCC(=O)N2)c2nc[nH]c2n1 |  | inhibition [7]: 35%
51 |  | C=CCOc1nc(N)nc2nc[nH]c12 | 78 | 
52 | 70 | Nc1nc(OCC2CCCNC2)c2nc[nH]c2n1 (stereo not drawn) |  | inhibition [7]: 64%
53 | 55 | Nc1nc(OCc2cccnc2)c2nc[nH]c2n1 |  | inhibition [7]: 43%
54 | 26 | Nc1nc(OCC2COC3(CCCCC3)O2)c2[nH]cnc2n1 (stereo not drawn) |  | inhibition [7]: 29%
55 |  | CC(C)Oc1[nH]c(N)nc2ncnc1-2 | 75 | 
56 | 22 | Nc1nc(OC[C@@H]2CCC(=O)N2)c2nc[nH]c2n1 |  | inhibition [7]: 15%
57 |  | Nc1nc(OCc2cccc3ccccc23)c2nc[nH]c2n1 |  | inhibition [3]: 3%; inhibition [4]: 10%
58 | 46 | CC1(C)OC[C@@H](COc2nc(N)nc3[nH]cnc23)O1 |  | inhibition [7]: 39%
